Assay results published in PMC9550238, “Novel TRKB agonists activate TRKB and downstream ERK and AKT signaling to protect Aβ-GFP SH-SY5Y cells against Aβ toxicity” (Aging (Albany NY), 2022).

Assays:
Aβ42 peptide = molecular target: T1, Aβ42 peptide (Homo sapiens, UniProt P05067); test: Thioflavin T Aβ aggregation inhibition assay; type: biochemical; details: Aβ42, compounds 5–20 μM
T1 construct: assessed by using Aβ42 peptide (AnaSpec, Fremont, CA, USA); purchased AnaSpec
Experimental: (§1) Thioflavin T is widely used to visualize and quantify the presence of misfolded amyloid protein aggregates in vitro [59]. […] In addition, DPPH radical (Sigma-Aldrich) was used to assay the free radical scavenging capacity of kaempferol, LM-031 and analogs (10–160 μM) as stated.

[1] = DPPH free radical scavenging assay; type: biochemical; details: compounds 10–160 μM
Experimental: as §1

Aβ-GFP SH-SY5Y cells [2] = test: Aβ folding reporter GFP fluorescence; type: cell-based, Human; details: for intensity of GFP fluorescence: untreated cells 100%; for EC50: Homo sapiens, 144 h, Aβ-GFP SH-SY5Y cells, compounds 1.2–5 μM, Dox 6 days, read-out: Aβ aggregation inhibition EC50 (GFP fluorescence)
Experimental: Human neuroblastoma SH-SY5Y-derived Aβ-GFP cells were maintained as stated. The recombinant Aβ-GFP protein has a 12 amino acid-containing linker between the fused Aβ and GFP. Doxycycline (5 μg/ml; Sigma-Aldrich) was used to induce Aβ-GFP expression.
Neuronal differentiation of Aβ-GFP SH-SY5Y cells was induced by retinoic acid (10 μM; Sigma-Aldrich). Cells on 96-well plate (2.5 × 10^4/well) were seeded on day 1, pre-treated with test compounds (1.2–5 μM) plus induced Aβ-GFP expression (5 μg/ml doxycycline) on day 2, and stained with Hoechst 33342 (0.1 μg/ml; Sigma-Aldrich) on day 8 as stated. Cell images were then captured at 482 nm excitation/536 nm emission wavelengths (ImageXpress Micro Confocal high-content system) and analyzed (MetaXpress image acquisition and analysis software) (Molecular Devices, Sunnyvale, CA, USA). In addition, ROS was quantified on day 8 following CellROX Deep Red stain (5 μM; Molecular Probes, Waltham, MA, USA) using the high-content system with excitation/emission wavelengths of 644/665 nm.

in vitro = in vitro ADME
Experimental: The permeability of LMDS-1 and -2 was determined by a PAMPA-BBB assay. Firstly, 300 μl of LMDS-1 or -2 (1 μM) solution were added to the donor well (Millipore). Bupropion (a high permeability marker), piroxicam (a low permeability marker), and lucifer yellow (an integrity marker) (Sigma-Aldrich) were used as quality control (QC) compounds for comparison. The sandwich with aqueous donor on the bottom, artificial lipid membrane (PVDF filter coated with porcine polar brain lipid) in the middle, and aqueous acceptor (5% DMSO in PBS) on the top was assembled as stated. Each compound was tested in triplicate. After incubation for 18 h at the ambient temperature, the PAMPA sandwich plate was separated. The concentrations of test and QC compounds in the donor and acceptor wells were measured as stated, and the effective permeability coefficient (Pe) was computed.

Aβ-GFP SH-SY5Y cells [3] = test: ERK/PI3K kinase inhibitor treatment, immunoblot of TRKB downstream targets; type: cell-based, Human
Experimental: Cells were plated in the presence of retinoic acid (5 × 10^5/6-well) on day 1, treated with tested compounds (5 μM) plus induced Aβ-GFP expression with doxycycline (5μg/ml) on day 2, as stated. Kinase inhibitors U0126 (an inhibitor of ERK) or wortmannin (an inhibitor of PI3K) (LC Laboratories, Woburn, MA, USA) (10 μM) were added on day 6. The cells were collected on day 8 for BDNF, BCL2, BAX, total/phosphorylated TRKB, ERK, AKT, and CREB protein analysis as previously stated.
(§2) Total proteins from Aβ-GFP SH-SY5Y cells were prepared, quantified, electrophoretically separated and blotted as stated. Following blocking, the membrane was probed with antibody against BDNF (1:500; Santa Cruz Biotechnology #sc-546, Santa Cruz, CA, USA), BCL2 (1:200; Santa Cruz Biotechnology #sc-7382), BAX (1:200; Santa Cruz Biotechnology #sc-7480), TRKB (1:500; Cell Signaling Technology #4603, Danvers, MA, USA), p-TRKB (Y516) (1:200; GeneTex #GTX32230, Irvine, CA, USA), p-TRKB (Y816) (1:1000; Millipore #ABN1381, Billerica, MA, USA), ERK (1:1000; Cell Signaling Technology #9102), p-ERK (T202/Y204) (1:1000; Cell Signaling Technology #9101), AKT (1:1000; Abcam #ab126811, Cambridge, CB, UK), p-AKT (S473) (1:1000; Cell Signaling Technology #4060), CREB (1:500; Santa Cruz Biotechnology #sc-186), p-CREB (S133) (1:1000; Millipore #06-519), or loading control GAPDH (glyceraldehyde-3-phosphate dehydrogenase) (1:1000; MDBio #30000002, Taipei, Taiwan). The immune complexes were detected as stated.

Aβ-GFP SH-SY5Y cells [4] = test: Comparison of BDNF and LMDS compounds on TRKB signaling, immunoblot; type: cell-based, Human; details: for p-CREB: induced untreated 42%; for p-ERK: induced untreated 64%; for p-AKT: induced untreated 65%
Experimental: as §2

Aβ-GFP SH-SY5Y cells [5] = test: ERK/PI3K kinase inhibitor treatment, immunoblot of TRKB downstream targets; type: cell-based, Human; details: 5 μM; induced untreated 61–64%
Aβ-GFP SH-SY5Y cells [6] = test: Neurite outgrowth analysis; type: cell-based, Human; details: 5 μM; induced untreated 3.0, uninduced 3.9
Experimental: As stated, Aβ-GFP SH-SY5Y cells were seeded (6 × 10^4/24-well) with retinoic acid addition on day 1, treated with tested compounds (5 μM) plus induced Aβ-GFP expression (5 μg/ml doxycycline) on day 2, and stained with TUBB3 (tubulin beta 3 class III) primary antibody (1:1000; Covance #MMS-435P, Princeton, NJ, USA), goat anti-rabbit Alexa Fluor® 555 secondary antibody (1:1000; Thermo Fisher Scientific #A27039), and DAPI (4′-6-diamidino-2-phenylindole, 0.1 μg/ml; Sigma-Aldrich) on day 8 [60]. Neuronal pictures were taken using the high-content system and analyzed for neurite length (μm), process (number of neurites protruding from neuronal cell body) and branch (number of neurites extending from process) (MetaXpress neurite outgrowth application module; Molecular Devices). In each of three independent experiments, roughly 6000 cells from each sample were examined.

[7] = 5 μM plus U0126 or wortmannin 10 μM
[8] = 5 μM, no kinase inhibitor, induced untreated 70–71%

T1 sequence (P05067 672-713 limits assumed): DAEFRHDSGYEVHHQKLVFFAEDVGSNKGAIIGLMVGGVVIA

| Molecule | EC50 (Aβ42 peptide) [µM] | EC50 [1] [µM] | EC50 (Aβ-GFP SH-SY5Y cells [2]) [µM] | PAMPA-BBB classification (in vitro) | Papp at 18 h, 1 μM (in vitro; PAMPA) [×10⁻⁶ cm/s] | intensity of GFP fluorescence (Aβ-GFP SH-SY5Y cells [2]; 1.2–5 μM) | p-ERK level (Aβ-GFP SH-SY5Y cells [3]; 5 μM plus U0126 10 μM) | BAX (Aβ-GFP SH-SY5Y cells [3]; [7]) | BCL2 (Aβ-GFP SH-SY5Y cells [3]; [7]) | p-CREB (Aβ-GFP SH-SY5Y cells [3]; [7]) | pro- and m-BDNF (Aβ-GFP SH-SY5Y cells [3]; [7]) | BCL2 (Aβ-GFP SH-SY5Y cells [3]; 5 μM, induced untreated 44%) | p-CREB (Aβ-GFP SH-SY5Y cells [3]; 5 μM, induced untreated 66%) | pro- and m-BDNF (Aβ-GFP SH-SY5Y cells [3]; 5 μM, induced untreated 68–52%) | BAX (Aβ-GFP SH-SY5Y cells [3]; 5 μM, induced untreated 225%) | p-AKT level (Aβ-GFP SH-SY5Y cells [3]; [8]) | p-ERK level (Aβ-GFP SH-SY5Y cells [3]; [8]) [%] | p-CREB (Aβ-GFP SH-SY5Y cells [4]; 5 μM) | p-ERK (Aβ-GFP SH-SY5Y cells [4]; 5 μM) | p-AKT (Aβ-GFP SH-SY5Y cells [4]; 5 μM) | further results |
| --- | --- | --- | --- | --- | --- | --- | --- | --- | --- | --- | --- | --- | --- | --- | --- | --- | --- | --- | --- | --- | --- |
| O=c1ccc2ccccc2o1 [Coumarin, coumarin, reference compound] | 25 | 179 | 9.8 |  |  | 113–140% |  |  |  |  |  |  |  |  |  |  |  |  |  |  |  |
| COc1cc(/C=C/C(=O)CC(=O)/C=C/c2ccc(O)c(OC)c2)ccc1O [Curcumin, curcumin, reference compound] |  |  | 6.1 |  |  |  |  |  |  |  |  |  |  |  |  |  |  |  |  |  | intensity of GFP fluorescence (Aβ-GFP SH-SY5Y cells [2]; 2.5–5 μM): 113–140%; neurite process (Aβ-GFP SH-SY5Y cells [6]): 3.7–3.8 |
| BDNF: Brain-derived neurotrophic factor, a neurotrophic factor binding TRKB (protein, UniProt P23560 19-247, looked up) Neurotrophic factor BDNF …: APMKEANIRGQGGLAYPGVRTHGTLESVNGPKAGSRGLTSLADTFEHVIEELLDEDQKVRPNEENNKDADLYTSRVMLSSQVPLEPPLLFLLEEYKNYLDAANMSMRVRRHSDPARRGELSVCDSISEWVTAADKKTAVDMSGGTVTVLEKVPVSKGQLKQYFYETKCNPMGYTKEGCRGIDKRHWNSQCRTTQSYVRALTMDSKKRIGWRFIRIDTSCVCTLTIKRGR |  |  |  |  |  |  |  |  |  |  |  |  |  |  |  |  |  |  |  |  | p-CREB (Aβ-GFP SH-SY5Y cells [4]; 100 ng/ml): 85–97%; p-ERK (Aβ-GFP SH-SY5Y cells [4]; 100 ng/ml): 94–111%; p-AKT (Aβ-GFP SH-SY5Y cells [4]; 100 ng/ml): 115–118% |

Now from value to molecule, other results behind:

| EC50 (Aβ42 peptide) [µM] | EC50 [1] [µM] | EC50 (Aβ-GFP SH-SY5Y cells [2]) [µM] | PAMPA-BBB classification (in vitro) | Papp at 18 h, 1 μM (in vitro; PAMPA) [×10⁻⁶ cm/s] | Molecule | intensity of GFP fluorescence (Aβ-GFP SH-SY5Y cells [2]; 1.2–5 μM) | p-ERK level (Aβ-GFP SH-SY5Y cells [3]; 5 μM plus U0126 10 μM) | BAX (Aβ-GFP SH-SY5Y cells [3]; [7]) | BCL2 (Aβ-GFP SH-SY5Y cells [3]; [7]) | p-CREB (Aβ-GFP SH-SY5Y cells [3]; [7]) | pro- and m-BDNF (Aβ-GFP SH-SY5Y cells [3]; [7]) | BCL2 (Aβ-GFP SH-SY5Y cells [3]; 5 μM, induced untreated 44%) | p-CREB (Aβ-GFP SH-SY5Y cells [3]; 5 μM, induced untreated 66%) | pro- and m-BDNF (Aβ-GFP SH-SY5Y cells [3]; 5 μM, induced untreated 68–52%) | BAX (Aβ-GFP SH-SY5Y cells [3]; 5 μM, induced untreated 225%) | p-AKT level (Aβ-GFP SH-SY5Y cells [3]; [8]) | p-ERK level (Aβ-GFP SH-SY5Y cells [3]; [8]) [%] | p-CREB (Aβ-GFP SH-SY5Y cells [4]; 5 μM) | p-ERK (Aβ-GFP SH-SY5Y cells [4]; 5 μM) | p-AKT (Aβ-GFP SH-SY5Y cells [4]; 5 μM) | further results |
| --- | --- | --- | --- | --- | --- | --- | --- | --- | --- | --- | --- | --- | --- | --- | --- | --- | --- | --- | --- | --- | --- |
| < 5 | 116 | 7.2 |  |  | CC(=O)Oc1ccc2cc(C(=O)c3ccccc3)c(=O)oc2c1 [LMDS-4] | 111–149% |  |  |  |  |  |  |  |  |  |  |  |  |  |  | recovery at 18 h, 1 µM (in vitro; PAMPA): 12.7% |
| < 5 | 117 | 6 | BBB^+ (high) | 14.9 ± 3.61 | CCOc1ccc2cc(C(=O)c3ccccc3)c(=O)oc2c1 [LMDS-1] | 111–149% | 38–43% | 152–191% | 80–121% | 52–84% | 65–88% | 156–199% | 127–142% | 100–169% | 121–130% | 110–111% | 115 | 85–97% | 94–111% | 115–118% | p-TRKB Y516 and Y817 (Aβ-GFP SH-SY5Y cells [5]): 113–123% |
| 18 | 146 | 7.5 | BBB^+ (moderate) | 3.81 ± 0.13 | O=C(c1ccccc1)c1cc2ccc(O)cc2oc1=O [LMDS-2] | 111–149% | 38–43% | 152–191% | 80–121% | 52–84% | 65–88% | 156–199% | 127–142% | 100–169% | 121–130% | 110–111% | 115 | 85–97% | 94–111% | 115–118% | p-TRKB Y516 and Y817 (Aβ-GFP SH-SY5Y cells [5]): 113–123% |
